This is an account of results in patent US20250195490A1, “ALPHA-METHYLENE AND AMINOMETHYL LACTONES AND LACTAMS FOR TREATMENT OF CLOSTRIDIOIDES DIFFICILE INFECTION (CDI)” (Purdue Research Foundation, priority 2022, published 2025).

For one data set, the system named is Caco-2 cells. In words: In vitro cytotoxicity (MTS assay) against Caco-2 cells. As to conditions: tested at 32, 64 and 128 μg/mL, two hours. As to the method: Percent viable mammalian cells (measured as average absorbance ratio (test agent relative to DMSO) for cytotoxicity analysis of the compounds (tested in triplicate) at 32, 64 and 128 μg/mL against Caco-2 cells using the MTS 3-(4,5-dimethylthiazol-2-yl)-5-(3-carboxymethoxyphenyl)-2-(4-sulfophenyl)-2H-tetrazolium) assay. Dimethyl sulfoxide (DMSO) was used as a negative control to determine a baseline measurement for the cytotoxic impact of each compound. The absorbance values represent an average of a minimum of three samples analyzed for each compound. Error bars represent standard deviation values for the absorbance values. A two-way ANOVA, with post hoc Dunnet's multiple comparisons test, determined statistical difference (denoted by the asterisk, *) (P<0.05) between the values obtained for each compound and DMSO (negative control, used as solvent for the compounds). […]
Method: Compounds were assayed (at concentrations of 32, 64 and 128 μg/mL) against a human colorectal (Caco-2) cell line to determine the potential toxic effect to mammalian cells in vitro. […] Absorbance readings (at OD490) were taken using a kinetic microplate reader (Molecular Devices, Sunnyvale, CA, USA). The quantity of viable cells after treatment with each compound was expressed as a percentage of the viability of DMSO-treated control cells (average of triplicate wells±standard deviation). […]

The nature of data set [1]: In vivo safety profile and toxicity (maximum tolerated dose) in mice. The method, then: Aminomethyllactone 27 was evaluated for any possible toxicity at oral doses higher than the anticipated dose that will be used for antimicrobial efficacy. The maximum tolerated dose (MTD) in mice was calculated and was expected to be several folds higher than therapeutic dose. The MTD is a dose that produces neither mortality nor more than a 10% decrement in body weight nor clinical signs of toxicity or a significant change in renal and/or hepatic function in the survivors. Having shown that 10 mg/kg in mice is not toxic in our initial mouse model studies, 10, 25, 50, 100, 200, 400 mg/kg doses of 27 were chosen, each dose was given one time to one mouse, and the mice were observed daily for 14 days for body weight gain, clinical signs of abnormality, and renal and hepatic function.
At the end of the study, all animals appeared to be healthy and have good body weight. They were then euthanized, and the major organ (heart, liver, lung, kidney, spleen, and intestines) tissues were harvested for histological examination of toxicity. The evaluator was blinded to the treatment status of each mouse at the time of examination. […] Overall, 27 appears to be non-toxic to mice.

As for `COc1cc(C2OC(=O)C(CN3CCCCC3)C2c2ccccc2Br)ccc1OCc1ccccc1` (racemic) [Compound 27], the “concentration up to which non-toxic to Caco-2 cells” value with Caco-2 cells came to 128 µg/mL. Moreover, in data set [1] (10 mg/kg in mice), the “toxicity in initial mouse model studies” value is “not toxic”. Besides, the “histological examination of major organ tissues” value in data set [1] (heart, liver, lung, kidney, spleen, intestines, end of 14-day study) is “within normal histologic limits”. Further, in data set [1] (single oral doses 10, 25, 50, 100, 200, 400 mg/kg, observed 14 days), the toxicity to mice entry is given as “non-toxic”.
On to `C=C1C(=O)O[C@H](c2ccccc2O)[C@@H]1c1cccc(C#N)c1` (racemic) [Compound 50], for which, in the data set on Caco-2 cells, the “concentration up to which non-toxic to Caco-2 cells” value was determined as 32 µg/mL.
